In paper PMC8583417, “Evaluation of the Antimicrobial Efficacy of N-Acetyl-L-Cysteine, Rhamnolipids, and Usnic Acid—Novel Approaches to Fight Food-Borne Pathogens” (International Journal of Molecular Sciences, 2021):

What was measured:
[1] = test system: S. aureus 1241; experiment: MIC for planktonic cell growth (A625nm); format: cell-based, Staphylococcus aureus; conditions: ≥80% inhibition, 24 h
Method: (§1) Ten concentrations of NAC, RLs, and UA were tested to determine the minimum inhibitory concentration for planktonic growth, and subsequently, the six highest concentrations were applied on preformed biofilms to evaluate the biofilm eradication ability of the compounds. MIC was defined as the lowest substance concentration able to inhibit at least 80% of microbial growth (MICPC80 for planktonic cells, MICBC80 for further growth of biofilm cells), inhibit 80% of metabolic activity (MICBM80 for biofilm metabolic activity, MICMPB80 for metabolic activity of preformed biofilm), prevent biofilm formation by at least 80% (MICBF80 for biofilm formation), or reduce a preformed biofilm by at least 80% (MICBR80 for biofilm reduction). The results of MICs are summarized in Table 1 (planktonic cells) and Table 2 (biofilm-associated cells).
(§2) The determination of MICs was performed according to Chlumsky et al.. Briefly, 96-well flat-bottomed microtiter plates were inoculated with 75 µL (for biofilm formation) or 100 µL (for preformed biofilm) of bacterial suspension (A625nm 0.08 to 0.1) in technical triplicates and were then carefully mixed with the dilution series of the test substances (24 h cultivation at 25 °C for S. Infantis, 37 °C for other strains) or were directly cultivated to preform biofilms (18 h). For a positive control of bacterial growth, the inoculum was mixed with a pure sterile medium. […] To evaluate planktonic cells growth (MICPC80) and further growth of biofilm cells (MICBC80), the optical density of the content of the microtiter plates was measured spectrophotometrically at 625 nm before and after 24 h (for biofilm formation) of cultivation or before and after additional 20 h incubation with the tested compound (for preformed biofilm). […] To evaluate the inhibition of biofilm formation (MICBF80) and reduction in preformed biofilms (MICBR80), biomass was quantified using crystal violet staining, and its metabolic activity (MICBM80 and MICMPB80) was estimated by using the MTT (thiazyl tetrazolium bromide, Sigma-Aldrich, USA) reduction assay, both measured spectrophotometrically at 595 nm.
(§3) All inhibitions were calculated using the formula of Chlumsky et al. below (Equation (1)):(1) A625(595)nm inhibition (%)=A625(595)nm (control) – A625(595)nm(natural substance)/A625(595)nm (control)× 100 where A625(595)nm (control) is the absorbance of bacterial suspension/biofilm itself, and A625(595)nm(natural substance) is the absorbance of the bacterial suspension/biofilm with the added natural substance (NAC, RLs, and UA).
(§4) When the minimum inhibitory concentration could not be determined, the MIC was established as >the highest tested concentration for NAC, RLs, and UA.

[2] = test system: S. aureus 816; experiment: MIC for planktonic cell growth (A625nm); format: cell-based, Staphylococcus aureus; conditions: ≥80% inhibition, 24 h
Method: as §1, §2, §3, §4

[3] = test system: S. Infantis S13; experiment: MIC for planktonic cell growth (A625nm); format: cell-based, Salmonella enterica Infantis; conditions: for MICPC80: ≥80% inhibition, 24 h
Method: as §1
(§5) The determination of MICs was performed according to Chlumsky et al.. Briefly, 96-well flat-bottomed microtiter plates were inoculated with 75 µL (for biofilm formation) or 100 µL (for preformed biofilm) of bacterial suspension (A625nm 0.08 to 0.1) in technical triplicates and were then carefully mixed with the dilution series of the test substances (24 h cultivation at 25 °C for S. Infantis, 37 °C for other strains) or were directly cultivated to preform biofilms (18 h). For a positive control of bacterial growth, the inoculum was mixed with a pure sterile medium. Furthermore, the sterile medium was included in the plate as a marker of potential microbial contamination. To evaluate planktonic cells growth (MICPC80) and further growth of biofilm cells (MICBC80), the optical density of the content of the microtiter plates was measured spectrophotometrically at 625 nm before and after 24 h (for biofilm formation) of cultivation or before and after additional 20 h incubation with the tested compound (for preformed biofilm). The difference of A625nm was considered as a measure of the ability of cells to grow in the presence of the tested substances. To evaluate the inhibition of biofilm formation (MICBF80) and reduction in preformed biofilms (MICBR80), biomass was quantified using crystal violet staining, and its metabolic activity (MICBM80 and MICMPB80) was estimated by using the MTT (thiazyl tetrazolium bromide, Sigma-Aldrich, USA) reduction assay, both measured spectrophotometrically at 595 nm.
as §3, §4

[4] = test system: S. Infantis S59; experiment: MIC for planktonic cell growth (A625nm); format: cell-based, Salmonella enterica Infantis; conditions: for MICPC80: ≥80% inhibition, 24 h
Method: as §1, §5, §3, §4

[5] = test system: L. monocytogenes 149; experiment: MIC for biofilm metabolic activity (MTT reduction assay); format: cell-based, Listeria monocytogenes; conditions: ≥80% inhibition, 24 h
Method: as §1, §2, §3, §4

[6] = test system: L. monocytogenes 164; experiment: as above; format: cell-based, Listeria monocytogenes; conditions: ≥80% inhibition, 24 h
Method: as §1, §2, §3, §4

[7] = test system: S. aureus 1241; experiment: MIC for further growth of biofilm cells, preformed biofilm (A625nm); format: cell-based, Staphylococcus aureus; conditions: ≥80% inhibition, 18 h preformed biofilm, 20 h with substance
Method: as §1
(§6) The determination of MICs was performed according to Chlumsky et al.. […] To evaluate planktonic cells growth (MICPC80) and further growth of biofilm cells (MICBC80), the optical density of the content of the microtiter plates was measured spectrophotometrically at 625 nm before and after 24 h (for biofilm formation) of cultivation or before and after additional 20 h incubation with the tested compound (for preformed biofilm). […] To evaluate the inhibition of biofilm formation (MICBF80) and reduction in preformed biofilms (MICBR80), biomass was quantified using crystal violet staining, and its metabolic activity (MICBM80 and MICMPB80) was estimated by using the MTT (thiazyl tetrazolium bromide, Sigma-Aldrich, USA) reduction assay, both measured spectrophotometrically at 595 nm.
as §3, with “UA). […]” for “UA).”

[8] = test system: E. coli 683/17; experiment: MIC for reduction of preformed biofilm (crystal violet staining); format: cell-based, Escherichia coli; conditions: for maximal achieved inhibition (MICBR80 not reached), biofilm reduction: preformed biofilm, within tested concentrations; for MICBR80: ≥80% reduction of preformed biofilm (18 h), 20 h with substance
Method: as §1, §5, §3, §4

[9] = test system: E. coli 693/17; experiment: as above; format: cell-based, Escherichia coli; conditions: for MICBR80: ≥80% reduction of preformed biofilm (18 h), 20 h with substance
Method: as §1, §5, §3, §4

[10] = test system: L. monocytogenes 149; experiment: MIC for metabolic activity of preformed biofilm (MTT reduction assay); format: cell-based, Listeria monocytogenes; conditions: ≥80% inhibition, 20 h with substance
Method: as §1, §2, §3, §4

[11] = test system: L. monocytogenes 164; experiment: as above; format: cell-based, Listeria monocytogenes; conditions: ≥80% inhibition, 20 h with substance
Method: as §1, §2, §3, §4

[12] = test system: S. Enteritidis ATCC 13076; experiment: as above; format: cell-based, Salmonella enterica Enteritidis; conditions: for MICMPB80: ≥80% inhibition, 20 h with substance
Method: as §1, §6
as §3, with “UA). […]” for “UA).”

Structure (SMILES) | MICPC80 [1] [µg/mL] | MICPC80 [2] [µg/mL] | MICPC80 [3] [µg/mL] | MICPC80 [4] [µg/mL] | MICBM80 [5] | MICBM80 [6] [µg/mL] | MICBC80 [7] [µg/mL] | maximal achieved inhibition (MICBR80 not reached), biofilm reduction [8] [%] | MICBR80 [8] | MICBR80 [9] | MICMPB80 [10] [µg/mL] | MICMPB80 [11] [µg/mL] | MICMPB80 [12] | maximal achieved inhibition (MICPC80 not reached) ([3]; within tested concentrations) [%] | maximal achieved inhibition (MICPC80 not reached) ([4]; within tested concentrations) [%] | maximal achieved inhibition (MICBR80 not reached), biofilm reduction ([9]; preformed biofilm, within tested concentrations) [%] | maximal achieved inhibition (MICMPB80 not reached) ([12]; within tested concentrations) [%]
CC(=O)N[C@@H](CS)C(=O)O [NAC, N-Acetyl-L-cysteine] | 3130 | 3130 | 6250 | 6250 | 12,500 µg/mL | 6250 | 6250 | 68 | > 100,000 µg/mL | 100,000 µg/mL | 6250 | 6250 | 12,500 µg/mL | – | – | – | –
CC(=O)c1c(O)c(C)c(O)c2c1OC1=CC(=O)C(C(C)=O)C(=O)C12C (single isomer, unassigned; (+)) [UA, (+)-usnic acid] | 0.24 | 0.24 | > 31.3 | > 31.3 | 1.96 µg/mL | 1.96 | 3.91 | 0 | > 31.3 µg/mL | > 31.3 µg/mL | 3.91 | 1.96 | > 31.3 µg/mL | 25 | 31 | 0 | 53
